Usually residual activity stands for the signal under treatment as a percentage of the control signal.

Residual activity data for 37 compounds are collected here from ChEMBL document CHEMBL3039007, “Structure-based identification of OATP1B1/3 inhibitors” (Mol Pharmacol, 2013).

The target in series [1] is T1, Solute carrier organic anion transporter family member 1B3 (Homo sapiens, UniProt Q9NPD5).
T1 sequence (Q9NPD5 whole entry): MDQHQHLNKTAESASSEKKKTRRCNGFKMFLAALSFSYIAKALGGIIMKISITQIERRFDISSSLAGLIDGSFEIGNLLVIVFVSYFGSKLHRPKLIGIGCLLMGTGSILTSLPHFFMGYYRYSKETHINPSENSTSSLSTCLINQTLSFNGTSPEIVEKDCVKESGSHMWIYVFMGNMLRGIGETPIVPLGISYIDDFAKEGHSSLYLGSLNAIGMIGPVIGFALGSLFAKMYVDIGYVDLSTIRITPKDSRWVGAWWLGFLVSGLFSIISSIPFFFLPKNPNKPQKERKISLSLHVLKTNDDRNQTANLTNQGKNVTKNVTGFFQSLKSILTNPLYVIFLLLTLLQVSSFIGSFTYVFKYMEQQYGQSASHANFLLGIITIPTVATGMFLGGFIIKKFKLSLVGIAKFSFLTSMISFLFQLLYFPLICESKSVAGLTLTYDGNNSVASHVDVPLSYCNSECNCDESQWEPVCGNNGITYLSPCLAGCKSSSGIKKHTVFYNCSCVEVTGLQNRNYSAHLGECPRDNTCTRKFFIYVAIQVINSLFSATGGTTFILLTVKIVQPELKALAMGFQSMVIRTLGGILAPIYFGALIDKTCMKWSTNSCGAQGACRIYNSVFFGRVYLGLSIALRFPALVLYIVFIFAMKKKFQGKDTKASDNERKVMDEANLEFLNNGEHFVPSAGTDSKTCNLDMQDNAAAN
The settings on record: chinese hamster, cho, 10 µM.

The target in series [2] is T2, Solute carrier organic anion transporter family member 1B1 (Homo sapiens, UniProt Q9Y6L6).
T2 sequence (Q9Y6L6 whole entry): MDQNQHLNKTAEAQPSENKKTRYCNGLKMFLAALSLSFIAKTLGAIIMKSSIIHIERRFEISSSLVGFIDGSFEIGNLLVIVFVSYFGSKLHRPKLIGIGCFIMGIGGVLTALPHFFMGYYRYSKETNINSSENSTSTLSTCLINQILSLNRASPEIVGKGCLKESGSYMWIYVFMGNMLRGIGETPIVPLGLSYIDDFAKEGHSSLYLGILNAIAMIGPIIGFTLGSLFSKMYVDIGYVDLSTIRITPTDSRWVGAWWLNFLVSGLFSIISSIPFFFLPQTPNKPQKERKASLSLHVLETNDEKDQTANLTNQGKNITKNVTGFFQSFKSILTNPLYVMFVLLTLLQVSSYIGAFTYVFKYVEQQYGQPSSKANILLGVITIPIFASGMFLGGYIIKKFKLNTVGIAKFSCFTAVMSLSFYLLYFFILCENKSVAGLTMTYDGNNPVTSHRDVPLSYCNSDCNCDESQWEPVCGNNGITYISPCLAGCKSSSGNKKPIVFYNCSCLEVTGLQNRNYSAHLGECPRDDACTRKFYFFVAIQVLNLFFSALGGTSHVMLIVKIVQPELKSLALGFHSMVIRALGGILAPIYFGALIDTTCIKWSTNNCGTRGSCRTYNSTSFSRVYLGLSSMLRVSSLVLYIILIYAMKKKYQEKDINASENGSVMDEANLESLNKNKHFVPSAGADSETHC
The settings on record: chinese hamster, cho, 10 µM.

As for `OCc1ccccc1O` [SALICYL ALCOHOL], the residual activity in series [1] is 117.7%; in series [2], 92.07%.

For the compound `NC(=O)c1ccccc1O` [SALICYLAMIDE], the residual activity in series [1] came out at 94.84%; in series [2], 85.6%.

As for `COc1cc2c(cc1OC)[C@H](C)NCC2` [SALSOLIDINE], the residual activity in series [1] stood at 93.8%; in series [2] it was 117.3%.

In the case of `COc1cc2c(cc1O)CCN[C@@H]2C` [SALSOLINE], the residual activity in series [1] is 112.8%; in series [2], 86.65%.

With `C[n+]1cc2c3c(ccc2c2ccc4cc5c(cc4c21)OCO5)OCO3.O=S(=O)([O-])O` [SANGUINARINE SULFATE], the residual activity in series [1] is on record as 92.42%; in series [2], 134.6%.

For the compound `CC1=C2[C@H]3OC(=O)[C@@H](C)[C@@H]3CC[C@@]2(C)C=CC1=O` [SANTONIN], the residual activity in series [1] was found to be 89.43%; in series [2], 108.9%.

Take `COc1ccc2c(c1)OC/C(=C/c1ccc(O)c(O)c1)C2=O` [SAPPANONE A 7-METHYL ETHER]: the residual activity in series [1] worked out at 107.8%; in series [2] it was 159.5%.

Consider `COc1ccc2c(c1)OC/C(=C\c1ccc(OC)c(O)c1)C2=O` [SAPPANONE A DIMETHYL ETHER], for which the residual activity in series [1] came to 136.1%; in series [2], 166.6%.

For `COc1ccc2c(c1)OC/C(=C/c1ccc(OC)c(OC)c1)C2=O` [SAPPANONE A TRIMETHYL ETHER], the residual activity in series [1] was 100.7%; in series [2], 112%.

Turning to `Cl.O=C(O)c1cn(-c2ccc(F)cc2)c2cc(N3CCNCC3)c(F)cc2c1=O` [SARAFLOXACIN HYDROCHLORIDE], the residual activity amounted to 115.6% in series [1] and 109.6% in series [2].

With `C[C@]12CC[C@H](O)C[C@H]1CC[C@@H]1[C@@H]2[C@H](O)C[C@]2(C)[C@@H](C3=CC(=O)OC3)CC[C@]12O` [SARMENTOGENIN], the residual activity in series [1] was 105.8%; in series [2], 70.58%.

As to `COC1C(O)C(O[C@H]2CC[C@]3(C=O)C4C(CC[C@]3(O)C2)[C@@]2(O)CC[C@H](C3=CC(=O)OC3)[C@@]2(C)C[C@H]4OC(C)=O)OC(C)C1OC(C)=O` (some centres undefined) [SARMENTOSIDE B], the residual activity in series [1] amounted to 72.65%; in series [2], 58.47%.

As for `COc1cc2ccc(=O)oc2cc1O` [SCOPOLETIN], the residual activity in series [1] is 99.95%; in series [2] it was 87.31%.

With `Cc1ncc([N+](=O)[O-])n1CC(C)O` (centres undefined) [SECNIDAZOLE], the figures for the residual activity in series [1] and in series [2] were 92.29% and 132.9%, respectively.

As for `O=C1C=C2C=C[C@@H]3C[C@@]2(O1)[C@H]1CCCCN31` [SECURININE], the residual activity in series [1] was found to be 115.4%; in series [2], 92.42%.

Regarding `CO[C@H]1C[C@H](O[C@@H]2/C(C)=C/C[C@@H]3C[C@@H](C[C@]4(CC[C@H](C)[C@@H](C5CCCCC5)O4)O3)OC(=O)[C@@H]3C=C(C)/C(=N/O)[C@H]4OC/C(=C\C=C\[C@@H]2C)[C@]43O)O[C@@H](C)[C@@H]1O` [SELAMECTIN], the residual activity stood at 93.37% in series [1] and 98.02% in series [2].

With `CC1CCC(NC(=O)N(CCCl)N=O)CC1` (centres undefined) [SEMUSTINE], the residual activity in series [1] was found to be 100.5%; in series [2], 101.5%.

Turning to `CC(=O)Oc1c(-c2ccccc2)oc2c(CC=C(C)C)c3c(c(OC(C)=O)c2c1=O)C=CC(C)(C)O3` [SERICETIN DIACETATE], the residual activity came to 81.94% in series [1] and 106.8% in series [2].

As to `CC(C)=CCc1c2c(c(O)c3c(=O)c(O)c(-c4ccccc4)oc13)C=CC(C)(C)O2` [SERICETIN], the results for the residual activity in series [1] and in series [2] were 98.26% and 89.94%, respectively.

With `CN[C@H]1CC[C@@H](c2ccc(Cl)c(Cl)c2)c2ccccc21.Cl` [SERTRALINE HYDROCHLORIDE], the residual activity is on record as 72.13% in series [1] and 66.16% in series [2].

`CCNc1nc(Cl)nc(NCC)n1` [SIMAZINE]: the figures for the residual activity in series [1] and in series [2] were 92.02% and 89.71%, respectively.

Consider `COc1cc(/C=C/C(=O)O)cc(OC)c1OC` [SINAPIC ACID METHYL ETHER], for which the residual activity in series [1] worked out at 88.51%; in series [2], 80.23%.

For `COC1=C[C@@H]2[C@@H]3Cc4ccc(OC)c(O)c4[C@]2(CCN3C)CC1=O` [SINOMENINE], the residual activity in series [1] is 68.46%; in series [2], 105.5%.

As for `CC[C@H](CC[C@@H](C)[C@H]1CC[C@H]2[C@@H]3CC=C4C[C@@H](OC(C)=O)CC[C@]4(C)[C@H]3CC[C@]12C)C(C)C` [SITOSTERYL ACETATE], the residual activity is recorded as 83.78% in series [1] and 97.72% in series [2].

`O=C([O-])CF.[Na+]` [SODIUM FLUOROACETATE]: the residual activity is reported as 104.2% in series [1] and 112.7% in series [2].

For `O=C([O-])c1ccccc1O.[Na+]` [SODIUM SALICYLATE], the residual activity in series [1] came to 80.83%; in series [2], 55.28%.

Take `NC(=O)c1ccc[n+]([C@@H]2O[C@H](COP(=O)([O-])OP(=O)(O)OC[C@H]3O[C@@H](n4cnc5c(N)ncnc54)[C@H](OP(=O)(O)O)[C@@H]3O)[C@@H](O)[C@H]2O)c1` [SODIUM beta-NICOTINAMIDE ADENINE DINUCLEOTIDE PHOSPHATE]: the results for the residual activity in series [1] and in series [2] were 105.1% and 190%, respectively.

In the case of `C[C@@H]1CC[C@]2(NC1)O[C@H]1C[C@H]3[C@@H]4CC=C5C[C@@H](O)CC[C@]5(C)[C@H]4CC[C@]3(C)[C@H]1[C@@H]2C` [SOLASODINE], the residual activity is reported as 113.6% in series [1] and 91.83% in series [2].

Regarding `CC(=O)N[C@@H](CC(=O)N[C@@H](CCC(=O)O)C(=O)O)C(=O)O` [SPAGLUMIC ACID], the residual activity turned out to be 87.85% in series [1] and 87.3% in series [2].

With `COc1cc2ccc(=O)oc2c2ccoc12` [SPHONDIN], the residual activity amounted to 102.5% in series [1] and 127% in series [2].

Consider `O=C(CCCN1CCC2(CC1)C(=O)NCN2c1ccccc1)c1ccc(F)cc1` [SPIPERONE], for which the residual activity in series [1] is 108.9%; in series [2], 168.8%.

As for `CC(=O)S[C@@H]1CC2=CC(=O)CC[C@]2(C)[C@H]2CC[C@@]3(C)[C@@H](CC[C@@]34CCC(=O)O4)[C@H]12` [SPIRONOLACTONE], the residual activity in series [1] is given as 103.5%; in series [2], 52.45%.

Regarding `COc1cc(C)c2c(c1C=O)Oc1c(c(C)c(O)c3c1C(O)OC3=O)OC2=O` (centres undefined) [STICTIC ACID], the residual activity in series [1] worked out at 32.28%; in series [2] it was 94.3%.

For the compound `CC[C@H](CC[C@@H](C)[C@H]1CC[C@H]2[C@@H]3CC[C@H]4C[C@@H](O)CC[C@]4(C)[C@H]3CC[C@]12C)C(C)C` [STIGMASTANOL], the residual activity in series [1] came to 102.9%; in series [2] it was 77.21%.

In the case of `CC[C@H](/C=C/[C@@H](C)[C@H]1CC[C@H]2[C@@H]3CC=C4C[C@@H](O)CC[C@]4(C)[C@H]3CC[C@]12C)C(C)C` [STIGMASTEROL], the figures for the residual activity in series [1] and in series [2] were 103.2% and 110.2%, respectively.

In the case of `CN[C@@H]1[C@H](O[C@H]2[C@H](O[C@H]3[C@H](O)[C@@H](O)[C@H](N=C(N)N)[C@@H](O)[C@@H]3N=C(N)N)O[C@@H](C)[C@]2(O)C=O)O[C@@H](CO)[C@H](O)[C@H]1O.CN[C@@H]1[C@H](O[C@H]2[C@H](O[C@H]3[C@H](O)[C@@H](O)[C@H](N=C(N)N)[C@@H](O)[C@@H]3N=C(N)N)O[C@@H](C)[C@]2(O)C=O)O[C@@H](CO)[C@H](O)[C@H]1O.O=S(=O)(O)O.O=S(=O)(O)O.O=S(=O)(O)O` [STREPTOMYCIN SULFATE], the values for the residual activity in series [1] and in series [2] were 109.2% and 87.18%, respectively.

On to `CN(N=O)C(=O)N[C@@H](C=O)[C@@H](O)[C@H](O)[C@H](O)CO` [STREPTOZOCIN], for which the residual activity is recorded as 100.3% in series [1] and 93.43% in series [2].
